pIC50, pKi: −log10 of the molar value.
Legend:
[1] = target: Voltage-gated inwardly rectifying potassium channel KCNH2 (Homo sapiens, UniProt Q12809); assay: Inhibition of human ERG expressed in HEK293 cells at -80 mV holding potential by whole cell patch clamp method; format: cell-based
[2] = Thermodynamic solubility in phosphate buffer at pH 7.4 at 2 mg incubated under shaking condition for 6 hrs followed by rechecking and readjusting pH to 7.4 and further incubated for 18 hrs by HPLC/UV detection method; format: physicochemical; settings: read-out: Therm_solubility
[3] = Intrinsic clearance in mouse liver microsomes assessed per mg protein in presence of NADPH by UPLC analysis; format: ADME, Microsome; settings: read-out: CLH
[4] = target: Poly [ADP-ribose] polymerase 1 (Homo sapiens, UniProt P09874); assay: Inhibition of recombinant human full-length Myc/His-tagged Parp-1 expressed in baculovirus infected Sf21 insect cells assessed as reduction in auto-PARsylation using activated DNA as substrate incubated for 150 mins in presence of NAD and bio-NAD as co-substrate by TR-FRET assay
[5] = target: T1, Poly [ADP-ribose] polymerase tankyrase-1 (Homo sapiens, UniProt O95271); set-up: species or system Sf9
T1 sequence (O95271 whole entry): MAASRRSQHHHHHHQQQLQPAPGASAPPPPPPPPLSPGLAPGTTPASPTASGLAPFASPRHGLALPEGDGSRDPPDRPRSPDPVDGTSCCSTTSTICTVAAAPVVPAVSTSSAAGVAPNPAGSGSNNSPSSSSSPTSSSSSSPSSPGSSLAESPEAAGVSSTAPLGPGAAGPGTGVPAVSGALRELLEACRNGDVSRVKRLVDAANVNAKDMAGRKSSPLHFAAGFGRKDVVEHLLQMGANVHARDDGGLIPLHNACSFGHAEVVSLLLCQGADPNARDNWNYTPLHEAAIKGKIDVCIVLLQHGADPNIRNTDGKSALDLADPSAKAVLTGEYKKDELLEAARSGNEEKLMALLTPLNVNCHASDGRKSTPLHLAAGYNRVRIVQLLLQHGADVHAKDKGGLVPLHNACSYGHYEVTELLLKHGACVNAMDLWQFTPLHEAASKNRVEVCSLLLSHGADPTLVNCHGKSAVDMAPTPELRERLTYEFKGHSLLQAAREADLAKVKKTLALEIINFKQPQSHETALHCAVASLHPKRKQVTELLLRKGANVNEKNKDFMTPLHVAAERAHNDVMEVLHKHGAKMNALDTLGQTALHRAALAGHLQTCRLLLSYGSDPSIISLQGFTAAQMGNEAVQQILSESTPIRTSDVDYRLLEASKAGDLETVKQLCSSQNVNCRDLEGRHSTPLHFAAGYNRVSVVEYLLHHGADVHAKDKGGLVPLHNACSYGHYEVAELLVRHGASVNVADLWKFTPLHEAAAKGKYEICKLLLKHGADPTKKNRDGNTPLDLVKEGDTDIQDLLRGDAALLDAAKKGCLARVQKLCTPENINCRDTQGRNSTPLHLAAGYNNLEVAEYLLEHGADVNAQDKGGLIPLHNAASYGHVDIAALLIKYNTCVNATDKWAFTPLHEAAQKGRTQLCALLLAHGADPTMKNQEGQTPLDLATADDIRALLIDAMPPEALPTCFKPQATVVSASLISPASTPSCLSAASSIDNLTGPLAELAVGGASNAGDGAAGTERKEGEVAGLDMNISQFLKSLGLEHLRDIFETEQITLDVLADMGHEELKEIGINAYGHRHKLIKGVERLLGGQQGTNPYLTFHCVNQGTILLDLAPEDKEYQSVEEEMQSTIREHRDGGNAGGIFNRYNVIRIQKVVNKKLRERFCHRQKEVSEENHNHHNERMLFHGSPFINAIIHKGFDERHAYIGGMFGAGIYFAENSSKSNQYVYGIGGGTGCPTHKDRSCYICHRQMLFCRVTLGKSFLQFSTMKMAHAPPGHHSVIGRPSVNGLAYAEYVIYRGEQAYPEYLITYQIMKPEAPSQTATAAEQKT

[6] = Intrinsic clearance in human liver microsomes assessed per mg protein in presence of NADPH by UPLC analysis; format: ADME, Microsome; settings: read-out: CLH

Voltage-gated inwardly rectifying potassium channel KCNH2, sequence (Q12809 whole entry): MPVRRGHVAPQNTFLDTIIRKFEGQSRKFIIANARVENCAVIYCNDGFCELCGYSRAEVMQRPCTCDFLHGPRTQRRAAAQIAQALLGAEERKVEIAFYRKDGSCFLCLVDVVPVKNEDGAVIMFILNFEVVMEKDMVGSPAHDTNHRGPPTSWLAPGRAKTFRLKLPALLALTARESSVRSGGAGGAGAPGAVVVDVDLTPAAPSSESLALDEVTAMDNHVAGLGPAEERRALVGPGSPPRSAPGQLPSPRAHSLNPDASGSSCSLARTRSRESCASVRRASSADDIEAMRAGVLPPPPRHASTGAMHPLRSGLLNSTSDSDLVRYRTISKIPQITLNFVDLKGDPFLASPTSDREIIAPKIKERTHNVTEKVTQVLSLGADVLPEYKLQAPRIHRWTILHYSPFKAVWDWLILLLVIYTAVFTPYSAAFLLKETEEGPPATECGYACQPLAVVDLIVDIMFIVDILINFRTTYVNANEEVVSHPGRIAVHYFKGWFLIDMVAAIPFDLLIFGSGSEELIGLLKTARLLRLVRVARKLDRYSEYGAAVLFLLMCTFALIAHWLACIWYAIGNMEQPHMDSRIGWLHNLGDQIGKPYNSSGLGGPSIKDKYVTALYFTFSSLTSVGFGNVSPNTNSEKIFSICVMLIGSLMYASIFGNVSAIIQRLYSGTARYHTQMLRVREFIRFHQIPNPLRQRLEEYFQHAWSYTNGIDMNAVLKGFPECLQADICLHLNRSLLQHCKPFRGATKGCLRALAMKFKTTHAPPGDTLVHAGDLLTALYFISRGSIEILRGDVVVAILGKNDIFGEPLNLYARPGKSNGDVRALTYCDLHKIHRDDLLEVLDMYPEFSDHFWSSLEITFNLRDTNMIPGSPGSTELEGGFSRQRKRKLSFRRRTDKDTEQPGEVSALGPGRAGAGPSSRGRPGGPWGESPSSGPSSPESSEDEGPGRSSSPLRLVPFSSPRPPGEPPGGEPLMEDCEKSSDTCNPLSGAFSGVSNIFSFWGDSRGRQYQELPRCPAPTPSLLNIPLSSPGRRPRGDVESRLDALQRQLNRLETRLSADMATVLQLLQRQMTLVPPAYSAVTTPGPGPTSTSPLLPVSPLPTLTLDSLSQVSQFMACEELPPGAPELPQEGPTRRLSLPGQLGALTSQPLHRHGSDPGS
Poly [ADP-ribose] polymerase 1, sequence (P09874 whole entry): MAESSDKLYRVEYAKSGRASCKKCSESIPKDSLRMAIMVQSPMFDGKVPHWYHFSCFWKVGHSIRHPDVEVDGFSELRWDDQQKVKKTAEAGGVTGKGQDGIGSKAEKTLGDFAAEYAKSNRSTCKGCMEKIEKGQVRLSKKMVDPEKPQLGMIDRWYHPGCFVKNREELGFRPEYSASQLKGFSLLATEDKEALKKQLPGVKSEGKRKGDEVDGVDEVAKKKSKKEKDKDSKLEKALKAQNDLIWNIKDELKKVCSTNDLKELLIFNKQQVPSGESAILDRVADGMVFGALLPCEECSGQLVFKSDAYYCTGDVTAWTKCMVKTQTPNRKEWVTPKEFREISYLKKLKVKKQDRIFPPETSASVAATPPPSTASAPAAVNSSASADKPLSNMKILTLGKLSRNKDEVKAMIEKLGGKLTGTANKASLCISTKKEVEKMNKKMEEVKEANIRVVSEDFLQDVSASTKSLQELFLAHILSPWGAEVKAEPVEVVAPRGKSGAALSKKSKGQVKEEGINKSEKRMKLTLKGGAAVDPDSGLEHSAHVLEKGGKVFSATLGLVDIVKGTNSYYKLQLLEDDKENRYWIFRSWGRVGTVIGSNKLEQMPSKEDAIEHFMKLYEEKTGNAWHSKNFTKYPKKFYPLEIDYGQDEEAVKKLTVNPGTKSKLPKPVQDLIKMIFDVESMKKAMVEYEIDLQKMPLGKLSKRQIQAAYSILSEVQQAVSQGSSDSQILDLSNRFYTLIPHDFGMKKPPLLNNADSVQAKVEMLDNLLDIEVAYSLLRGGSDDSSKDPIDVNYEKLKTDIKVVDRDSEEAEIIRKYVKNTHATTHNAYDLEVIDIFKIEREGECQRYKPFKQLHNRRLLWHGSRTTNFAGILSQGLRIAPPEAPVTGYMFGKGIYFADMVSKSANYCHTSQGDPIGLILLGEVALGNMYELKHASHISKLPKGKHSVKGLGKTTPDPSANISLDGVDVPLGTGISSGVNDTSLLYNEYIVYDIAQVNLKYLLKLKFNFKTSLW

solubility thermodynamic at 24 h [2]: 44 µg/mL | microsomal CLint [3]: 77 µL/min/mg | pIC50 [4]: 6.41 | pIC50 [5]: 8.89 | microsomal CLint [6]: < 10 µL/min/mg
Compound: Cc1cc(F)cc2c(=O)[nH]c(-c3ccc(C4CCNCC4)cc3)nc12.Cl
pKi [1]: 5.17
